Test results reported in patent publication US20240391948A1, “NOVEL COMPOUND THAT INHIBITS TNF-ALPHA GENERATION AND INFLAMMASOME ACTIVITY AND PREPARATION METHOD THEREFOR” (SHAPERON INC., priority 2021, published 2024).

Columns and labels:
Type in all cases: cell-based
[1] = system: J774A.1 (Mouse BALB/c monocyte macrophage cell line) cells; assay: LPS+ATP-induced IL-1β secretion inhibition in J774A.1 cells; conditions: J774.A1, 1 μM compound, graded compared to taurodeoxycholic acid (positive control), read-out: IL-1β production inhibition grade
Procedure, shortened: (§1)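 Grades (A >100%, B 50–100%, C 20–50%, D <20%) express cytokine suppression by 1 μM compound relative to taurodeoxycholic acid. LPS-induced TNF-α and LPS+ATP-induced IL-1β secretion were measured in murine J774A.1 macrophage cells.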

[2] = system: U937 cells (human monocytic cell line); assay: Pam2CSK4-induced TNF-α secretion inhibition in PMA-differentiated U937 cells; conditions: U-937, U937 cells differentiated with PMA, read-out: TNF-α production inhibition grade (IC50)
Procedure, shortened: (§2)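 Inhibition is given as IC50 (μM) in A-D bands, using distinct thresholds for TNF-α and for IL-1β. Secretion followed Pam2CSK4 stimulation (TNF-α) or BzATP stimulation (IL-1β) of compound-pretreated, PMA-differentiated U937 macrophages.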

[3] = system: J774A.1 (Mouse BALB/c monocyte macrophage cell line) cells; assay: LPS-induced TNF-α secretion inhibition in J774A.1 cells; conditions: J774.A1, 1 μM compound, graded compared to taurodeoxycholic acid (positive control), read-out: TNF-α production inhibition grade
Procedure, shortened: as §1

[4] = system: U937 cells (human monocytic cell line); assay: BzATP-induced IL-1β secretion inhibition in PMA-differentiated U937 cells; conditions: U-937, U937 cells differentiated with PMA, read-out: IL-1β production inhibition grade (IC50)
Procedure, shortened: as §2

Row | Compound | inhibition at 1 µM [1] [%] | IC50 [2] [nM] | inhibition at 1 µM [3] [%] | IC50 [4] [nM]
1 | C[C@H](CCC(=O)N1CC[C@@H](S(=O)(=O)O)C1)[C@H]1CC[C@H]2[C@@H]3[C@H](O)C[C@@H]4C[C@H](O)CC[C@]4(C)[C@H]3C[C@H](O)[C@]12C [NC20034] | < 20 | 1000 to 2000 | < 20 | 50 to 100
2 | C[C@H](CCC(=O)N(CCN(C)C)CCS(=O)(=O)O)[C@H]1CC[C@H]2[C@@H]3[C@H](O)C[C@@H]4C[C@H](O)CC[C@]4(C)[C@H]3C[C@H](O)[C@]12C [NC20035] | < 20 | 1000 to 2000 | < 20 | 50 to 100
3 | C[C@H](CCC(=O)N(CCS(=O)(=O)O)Cc1cccnc1)[C@H]1CC[C@H]2[C@@H]3[C@H](O)C[C@@H]4C[C@H](O)CC[C@]4(C)[C@H]3C[C@H](O)[C@]12C [NC20036] | < 20 | 500 to 1000 | < 20 | 50 to 100
4 | C[C@H](CCC(=O)N(CCS(=O)(=O)O)c1ccccc1)[C@H]1CC[C@H]2[C@@H]3[C@H](O)C[C@@H]4C[C@H](O)CC[C@]4(C)[C@H]3C[C@H](O)[C@]12C [NC20037] | 50 to 100 | < 500 | < 20 | < 50
5 | C[C@H](CCC(=O)NCCC(=O)O)[C@H]1CC[C@H]2[C@@H]3CC[C@@H]4CC(=O)CC[C@]4(C)[C@H]3CC[C@]12C [NC30002] | 50 to 100 | 1000 to 2000 | < 20 | 100 to 200
6 | C[C@H](CCC(=O)N(C)CCS(=O)(=O)O)[C@H]1CC[C@H]2[C@@H]3CC[C@@H]4CC(=O)CC[C@]4(C)[C@H]3CC[C@]12C [NC30004] | 20 to 50 | 1000 to 2000 | 20 to 50 | ≥ 200
7 | C[C@H](CCC(=O)N(CCO)CCS(=O)(=O)O)[C@H]1CC[C@H]2[C@@H]3CC[C@@H]4CC(=O)CC[C@]4(C)[C@H]3CC[C@]12C [NC30006] | < 20 | 500 to 1000 | < 20 | ≥ 200
8 | C[C@H](CCC(=O)N(CCS(=O)(=O)O)C1CCOCC1)[C@H]1CC[C@H]2[C@@H]3CC[C@@H]4CC(=O)CC[C@]4(C)[C@H]3CC[C@]12C [NC30008] | 50 to 100 | 500 to 1000 | < 20 | ≥ 200
9 | C[C@H](CCC(=O)N1CCC[C@H](S(=O)(=O)O)C1)[C@H]1CC[C@H]2[C@@H]3CC[C@@H]4CC(=O)CC[C@]4(C)[C@H]3CC[C@]12C [NC30009] | 20 to 50 | 500 to 1000 | 50 to 100 | ≥ 200
10 | C[C@H](CCC(=O)N1CCC[C@@H](S(=O)(=O)O)C1)[C@H]1CC[C@H]2[C@@H]3CC[C@@H]4CC(=O)CC[C@]4(C)[C@H]3CC[C@]12C [NC30010] | 50 to 100 | 500 to 1000 | > 100 | < 50
11 | C[C@H](CCC(=O)N1CCC(S(=O)(=O)O)CC1)[C@H]1CC[C@H]2[C@@H]3CC[C@@H]4CC(=O)CC[C@]4(C)[C@H]3CC[C@]12C [NC30011] | < 20 | 500 to 1000 | < 20 | ≥ 200
12 | C[C@H](CCC(=O)N1CC(S(=O)(=O)O)C1)[C@H]1CC[C@H]2[C@@H]3CC[C@@H]4CC(=O)CC[C@]4(C)[C@H]3CC[C@]12C [NC30012] | 20 to 50 | ≥ 2000 | < 20 | ≥ 200
13 | C[C@H](CCC(=O)NC(C)(C)CS(=O)(=O)O)[C@H]1CC[C@H]2[C@@H]3CC[C@@H]4CC(=O)CC[C@]4(C)[C@H]3CC[C@]12C [NC30013] | 50 to 100 | 500 to 1000 | 50 to 100 | ≥ 200
14 | C[C@H](CCC(=O)N[C@@H](Cc1ccccc1)CS(=O)(=O)O)[C@H]1CC[C@H]2[C@@H]3CC[C@@H]4CC(=O)CC[C@]4(C)[C@H]3CC[C@]12C [NC30014] | 20 to 50 | 500 to 1000 | < 20 | ≥ 200
15 | C[C@H](CCC(=O)N[C@H](Cc1ccccc1)CS(=O)(=O)O)[C@H]1CC[C@H]2[C@@H]3CC[C@@H]4CC(=O)CC[C@]4(C)[C@H]3CC[C@]12C [NC30015] | < 20 | < 500 | < 20 | ≥ 200
16 | CC(C)[C@@H](CS(=O)(=O)O)NC(=O)CC[C@@H](C)[C@H]1CC[C@H]2[C@@H]3CC[C@@H]4CC(=O)CC[C@]4(C)[C@H]3CC[C@]12C [NC30016] | 20 to 50 | < 500 | 20 to 50 | ≥ 200
17 | CC(C)[C@H](CS(=O)(=O)O)NC(=O)CC[C@@H](C)[C@H]1CC[C@H]2[C@@H]3CC[C@@H]4CC(=O)CC[C@]4(C)[C@H]3CC[C@]12C [NC30017] | < 20 | ≥ 2000 | < 20 | ≥ 200
18 | C[C@H](CCC(=O)N[C@H](CS(=O)(=O)O)c1ccccc1)[C@H]1CC[C@H]2[C@@H]3CC[C@@H]4CC(=O)CC[C@]4(C)[C@H]3CC[C@]12C [NC30018] | < 20 | ≥ 2000 | < 20 | ≥ 200
19 | C[C@H](CCC(=O)N[C@@H](CS(=O)(=O)O)c1ccccc1)[C@H]1CC[C@H]2[C@@H]3CC[C@@H]4CC(=O)CC[C@]4(C)[C@H]3CC[C@]12C [NC30019] | < 20 | 1000 to 2000 | < 20 | ≥ 200
20 | C[C@H](CCC(=O)N1CCC[C@@H]1CS(=O)(=O)O)[C@H]1CC[C@H]2[C@@H]3CC[C@@H]4CC(=O)CC[C@]4(C)[C@H]3CC[C@]12C [NC30020] | 20 to 50 | ≥ 2000 | < 20 | ≥ 200
21 | C[C@H](CCC(=O)NC[C@H](C)S(=O)(=O)O)[C@H]1CC[C@H]2[C@@H]3CC[C@@H]4CC(=O)CC[C@]4(C)[C@H]3CC[C@]12C [NC30022] | 20 to 50 | ≥ 2000 | 20 to 50 | ≥ 200
22 | C[C@H](CCC(=O)NC[C@@H](C)S(=O)(=O)O)[C@H]1CC[C@H]2[C@@H]3CC[C@@H]4CC(=O)CC[C@]4(C)[C@H]3CC[C@]12C [NC30023] | 50 to 100 | ≥ 2000 | > 100 | ≥ 200
23 | C[C@H](CCC(=O)N[C@H](CO)CS(=O)(=O)O)[C@H]1CC[C@H]2[C@@H]3CC[C@@H]4CC(=O)CC[C@]4(C)[C@H]3CC[C@]12C [NC30025] | < 20 | 1000 to 2000 | > 100 | ≥ 200
24 | C[C@H](CCC(=O)N[C@H]1CCCC[C@H]1S(=O)(=O)O)[C@H]1CC[C@H]2[C@@H]3CC[C@@H]4CC(=O)CC[C@]4(C)[C@H]3CC[C@]12C [NC30027] | > 100 | 500 to 1000 | > 100 | < 50
